The numbers were not newly measured in paper PMC8184532 (European Journal of Clinical Pharmacology, 2021), which cites them from elsewhere.

Like-named read-outs stand apart in the source and are kept apart here.

For data set [1] the following is noted: coadministered with ritonavir; Stader et al.

`CCOC(=O)C1=C(COCCN)NC(C)=C(C(=O)OC)C1c1ccccc1Cl` (stereo not shown) [amlodipine]: the “increase in amlodipine exposure” value in data set [1] is recorded as 90%; the “increase in amlodipine exposure” value (coadministered with antiviral agents for chronic hepatitis C or ritonavir-boosted indinavir, non-compartmental analyses) is 2 fold; the “increase in amlodipine exposure” value (coadministered with ritonavir-boosted indinavir, healthy volunteers) was 90%; the “increase in amlodipine exposure” value (in the presence of diltiazem, a CYP3A4 inhibitor, summary of product characteristics) is reported as 60%.
